Measurements: patent US10752632B2, “6-fluoro 2-methylbenzo[d]thiazol-5-yl compounds” (Eli Lilly and Company, priority 2018, dated 2020)

The molecules below were run against full-length human O-GlcNAc-β-N-acetylglucosaminidase (OGA) (Homo sapiens (Human), UniProt O60502) (assay: In Vitro Human OGA Enzyme Assay). Conditions: His-OGA enzyme, FD-GlcNAc substrate 6.7 μM, 30 min pre-incubation, 60 min at room temperature, pH 7.
Format: biochemical
Description: In Vitro Human OGA Enzyme Assay
The nucleotide sequence encoding full-length human O-GlcNAc-β-N-acetylglucosaminidase (NM_012215) is inserted into pFastBac1 (Invitrogen) vector with an N-terminal poly-histidine (HIS) tag. Baculovirus generation is carried out according to the Bac-to-Bac Baculovirus Expression system (Invitrogen) protocol. Sf9 cells are infected at 1.5×10^6 cells/mL using 10 mL of P1 virus per Liter of culture and incubated at 28° C. for 48 hrs. Cells are spun down, rinsed with PBS and the pellets stored at −80° C. The above OGA protein (His-OGA) is purified as follows: 4 L of cells are lysed in 200 mL of buffer containing 50 mM Tris, pH 8.0, 300 mM NaCl, 10% glycerol, 10 mM imidazole, 1 mM dithiothreitol (DTT), 0.1% Triton™ X-100, 4 tablets of protease inhibitors (complete EDTA-Free, Roche) for 45 min at 4° C. This cell lysate is then spun for 40 min at 16500 rpm at 4° C., and supernatant incubated with 6 mL of Ni-NTA resin (nickel-nitrilotriacetic acid) for 2 h at 4° C.
Resin is then packed onto column and washed with 50 mM Tris, pH 8.0, 300 mM NaCl, 10% glycerol, 10 mM imidazole, 0.1% Triton™ X-100, 1 mM DTT, followed by 50 mM Tris, pH 8.0, 150 mM NaCl, 10 mM imidazole, 10% glycerol, 1 mM DTT. The proteins are eluted with 50 mM Tris, pH 8.0, 150 mM NaCl, 300 mM imidazole, 10% glycerol, 1 mM DTT. Pooled His-OGA containing fractions are concentrated to 6 ml and loaded onto Superdex75 (16/60). The protein is eluted with 50 mM Tris, pH 8.0, 150 mM NaCl, 10% glycerol, 2 mM DTT. Fractions containing His-OGA are pooled and protein concentration measured with BCA ([…]).
The OGA enzyme catalyses the removal of O-GlcNAc from nucleocytoplasmic proteins. To measure this activity Fluorescein di-N-acetyl-β-N-acetyl-D-glucosaminide (FD-GlcNAc, Kim, Eun Ju; Kang, Dae Ook; Love, Dona C.; Hanover, John A. Carbohydrate Research (2006), 341(8), 971-982) is used as a substrate at a final concentration of 6.7 μM. This fluorogenic substrate becomes fluorescent upon cleavage by OGA, so that the enzyme activity can be measured by the increase in fluorescence detected at 535 nm (excitation at 485 nm).
The assay buffer is prepared to give a final concentration of 50 mM […], 0.01% bovine serum albumin and 0.01% Triton™ X-100 in water, at pH 7. Compounds to be tested are diluted in pure dimethyl sulfoxide (DMSO) using ten point concentration response curves. Maximal compound concentration in the reaction mixture is 30 or 1 μM. Compounds at the appropriate concentration are pre-incubated with OGA enzyme for 30 minutes before the reaction is started by the addition of substrate. The final enzyme concentration is 3.24 nM or 0.5 nM, for the 30 or 1 μM maximal compound concentration, respectively. Reactions are allowed to proceed for 60 min at room temperature. Then, without stopping the reaction, fluorescence is read. IC50 values are calculated by plotting the normalized data vs. log of the compound and fitting the data using a four parameter logistic equation.
The compounds of Examples 1 through 6 were tested essentially as described above.

Chain of full-length human O-GlcNAc-β-N-acetylglucosaminidase (OGA) (O60502 whole entry): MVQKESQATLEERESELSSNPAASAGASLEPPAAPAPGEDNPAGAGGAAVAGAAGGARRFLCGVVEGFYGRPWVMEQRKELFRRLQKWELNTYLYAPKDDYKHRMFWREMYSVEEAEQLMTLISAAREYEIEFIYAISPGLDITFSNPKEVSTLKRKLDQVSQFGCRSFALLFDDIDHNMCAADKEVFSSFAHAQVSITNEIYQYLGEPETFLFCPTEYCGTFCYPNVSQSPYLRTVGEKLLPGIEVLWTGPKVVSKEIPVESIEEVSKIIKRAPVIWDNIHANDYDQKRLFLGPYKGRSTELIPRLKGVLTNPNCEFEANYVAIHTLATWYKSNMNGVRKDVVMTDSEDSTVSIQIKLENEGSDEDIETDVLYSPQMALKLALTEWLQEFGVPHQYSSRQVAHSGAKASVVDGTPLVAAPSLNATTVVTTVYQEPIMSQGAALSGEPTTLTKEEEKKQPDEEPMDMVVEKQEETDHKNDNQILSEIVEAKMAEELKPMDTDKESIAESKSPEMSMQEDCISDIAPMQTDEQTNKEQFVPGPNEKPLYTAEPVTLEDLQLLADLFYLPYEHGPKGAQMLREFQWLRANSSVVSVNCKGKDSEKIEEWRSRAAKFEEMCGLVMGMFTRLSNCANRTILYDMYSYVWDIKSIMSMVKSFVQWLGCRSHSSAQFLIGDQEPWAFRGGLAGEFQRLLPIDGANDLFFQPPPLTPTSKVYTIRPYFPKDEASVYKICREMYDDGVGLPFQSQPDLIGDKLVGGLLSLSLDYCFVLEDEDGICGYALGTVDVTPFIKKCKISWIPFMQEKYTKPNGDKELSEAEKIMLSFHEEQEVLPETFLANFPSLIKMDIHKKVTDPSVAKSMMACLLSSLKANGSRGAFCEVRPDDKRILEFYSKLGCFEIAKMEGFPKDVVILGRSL

| Compound | IC50 [nM] |
| --- | --- |
| CC(=O)N1Cc2cc(O[C@@H]3C[C@H](C)N(Cc4cc5nc(C)sc5cc4F)C3)cnc2C1 [Example 4, 1-[3-[(3R,5S)-1-[(6-fluoro-2-methyl-1,3-benzothiazol-5-yl)methyl]-5-methyl-pyrrolidin-3-yl]oxy-5,7-dihydropyrrolo[3,4-b]pyridin-6-yl]ethanone] | 0.592 ± 0.068 |
| CC(=O)N1Cc2ccc(O[C@@H]3C[C@H](C)N([C@@H](C)c4cc5nc(C)sc5cc4F)C3)nc2C1 [Example 6, 1-[2-[(3R,5S)-1-[(1S)-1-(6-fluoro-2-methyl-1,3-benzothiazol-5-yl)ethyl]-5-methyl-pyrrolidin-3-yl]oxy-5,7-dihydropyrrolo[3,4-b]pyridin-6-yl]ethanone] | 0.385 ± 0.088 |
| CC(=O)N1Cc2ccc(O[C@@H]3C[C@H](C)N(Cc4cc5nc(C)sc5cc4F)C3)nc2C1 [Example 2, 1-(2-(((3R,5S)-1-((6-fluoro-2-methylbenzo[d]thiazol-5-yl)methyl)-5-methylpyrrolidin-3-yl)oxy)-5,7-dihydro-6H-pyrrolo[3,4-b]pyridin-6-yl)ethan-1-one] | 0.214 ± 0.037 |
| CC(=O)N1Cc2cnc(O[C@@H]3C[C@H](C)N(Cc4cc5nc(C)sc5cc4F)C3)nc2C1 [Example 1, 1-(2-(((3R,5S)-1-((6-fluoro-2-methylbenzo[d]thiazol-5-yl)methyl)-5-methylpyrrolidin-3-yl)oxy)-5,7-dihydro-6H-pyrrolo[3,4-d]pyrimidin-6-yl)ethan-1-one] | 0.465 ± 0.224 |
| CC(=O)N1Cc2cnc(O[C@@H]3C[C@H](C)N([C@@H](C)c4cc5nc(C)sc5cc4F)C3)nc2C1 [Example 5, 1-[2-[(3R,5S)-1-[(1S)-1-(6-fluoro-2-methyl-1,3-benzothiazol-5-yl)ethyl]-5-methyl-pyrrolidin-3-yl]oxy-5,7-dihydropyrrolo[3,4-d]pyrimidin-6-yl]ethanone] | 0.495 ± 0.109 |
| CC(=O)N1Cc2cnc(O[C@@H]3C[C@H](C)N(Cc4cc5nc(C)sc5cc4F)C3)cc2C1 [Example 3, 1-[6-[(3R,5S)-1-[(6-fluoro-2-methyl-1,3-benzothiazol-5-yl)methyl]-5-methyl-pyrrolidin-3-yl]oxy-1,3-dihydropyrrolo[3,4-c]pyridin-2-yl]ethanone] | 0.782 ± 0.087 |
